{"source": "ChEMBL document CHEMBL1201862", "about": "“PubChem BioAssay data set” (2004)", "key": {"Procathepsin L": {"target": "Procathepsin L (Homo sapiens, UniProt P07711)", "sequence (P07711 whole entry)": "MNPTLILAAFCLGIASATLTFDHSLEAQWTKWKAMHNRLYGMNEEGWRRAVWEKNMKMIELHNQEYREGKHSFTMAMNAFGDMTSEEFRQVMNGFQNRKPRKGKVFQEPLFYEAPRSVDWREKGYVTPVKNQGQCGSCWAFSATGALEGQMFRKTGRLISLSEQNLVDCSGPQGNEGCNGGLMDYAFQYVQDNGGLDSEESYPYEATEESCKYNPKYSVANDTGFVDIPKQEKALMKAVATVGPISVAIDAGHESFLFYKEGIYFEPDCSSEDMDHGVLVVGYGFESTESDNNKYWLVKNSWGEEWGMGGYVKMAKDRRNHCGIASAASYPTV"}, "[1]": {"target": "Alkaline phosphatase, placental type (Homo sapiens, UniProt P05187)", "sequence (P05187 whole entry)": "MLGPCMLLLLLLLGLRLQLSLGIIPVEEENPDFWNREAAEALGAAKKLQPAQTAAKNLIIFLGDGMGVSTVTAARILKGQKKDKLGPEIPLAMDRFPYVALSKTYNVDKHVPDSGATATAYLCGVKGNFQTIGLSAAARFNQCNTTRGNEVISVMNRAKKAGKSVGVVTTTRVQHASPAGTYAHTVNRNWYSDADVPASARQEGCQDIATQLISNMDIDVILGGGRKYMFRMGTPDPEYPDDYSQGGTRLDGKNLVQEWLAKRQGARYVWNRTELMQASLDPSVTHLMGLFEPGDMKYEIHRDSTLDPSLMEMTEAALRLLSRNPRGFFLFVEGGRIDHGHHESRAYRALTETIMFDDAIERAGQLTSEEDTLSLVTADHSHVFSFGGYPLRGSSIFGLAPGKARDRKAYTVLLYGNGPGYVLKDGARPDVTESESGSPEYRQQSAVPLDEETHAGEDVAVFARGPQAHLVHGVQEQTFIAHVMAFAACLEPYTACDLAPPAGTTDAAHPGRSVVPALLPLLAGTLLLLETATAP", "assay": "human placental alkaline phosphatase inhibition – biochemical, luminescence, confirmation (AID 1512)", "assay_type": "functional"}, "Aspartyl aminopeptidase": {"target": "Aspartyl aminopeptidase (Plasmodium falciparum 3D7, UniProt Q8I2J3)", "sequence (Q8I2J3 whole entry)": "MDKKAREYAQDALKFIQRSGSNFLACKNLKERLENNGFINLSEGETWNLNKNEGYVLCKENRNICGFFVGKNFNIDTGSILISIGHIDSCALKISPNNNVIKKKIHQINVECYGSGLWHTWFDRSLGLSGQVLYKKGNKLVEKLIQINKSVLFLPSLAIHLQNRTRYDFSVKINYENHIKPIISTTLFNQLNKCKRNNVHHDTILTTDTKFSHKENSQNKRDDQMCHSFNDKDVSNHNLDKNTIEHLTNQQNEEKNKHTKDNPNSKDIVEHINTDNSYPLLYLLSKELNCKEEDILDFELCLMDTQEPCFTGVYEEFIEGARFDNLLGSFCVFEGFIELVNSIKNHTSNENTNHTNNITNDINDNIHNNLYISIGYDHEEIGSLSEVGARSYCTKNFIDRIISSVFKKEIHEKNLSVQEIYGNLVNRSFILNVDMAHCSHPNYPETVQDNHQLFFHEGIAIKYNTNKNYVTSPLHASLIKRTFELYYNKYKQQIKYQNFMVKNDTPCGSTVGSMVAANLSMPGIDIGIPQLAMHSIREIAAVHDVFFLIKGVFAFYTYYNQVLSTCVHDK"}, "Streptokinase A": {"target": "T1, Streptokinase A (Streptococcus pyogenes serotype M1, UniProt P10520)", "T1 sequence (P10520 whole entry)": "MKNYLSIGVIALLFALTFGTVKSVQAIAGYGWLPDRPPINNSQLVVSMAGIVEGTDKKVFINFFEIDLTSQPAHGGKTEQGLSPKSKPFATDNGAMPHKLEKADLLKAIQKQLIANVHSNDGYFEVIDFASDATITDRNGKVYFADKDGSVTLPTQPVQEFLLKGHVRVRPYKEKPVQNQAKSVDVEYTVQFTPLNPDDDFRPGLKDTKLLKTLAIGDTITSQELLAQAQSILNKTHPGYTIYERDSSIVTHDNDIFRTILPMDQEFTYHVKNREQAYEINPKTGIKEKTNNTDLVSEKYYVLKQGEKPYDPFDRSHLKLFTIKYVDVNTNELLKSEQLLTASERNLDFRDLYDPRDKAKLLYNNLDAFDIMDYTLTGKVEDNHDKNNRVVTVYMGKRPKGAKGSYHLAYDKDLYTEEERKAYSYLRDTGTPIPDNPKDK", "assay": "viability-normalized secreted streptokinase activity reduction – plasminogen activation absorbance, OD405, dose response (AID 1914)", "assay_type": "functional, Streptococcus pyogenes M1 GAS"}, "Streptococcus [2]": {"system": "Streptococcus", "assay": "Luminescence Microorganism-Based Dose Response Follow up to Identify Compounds Cytotoxic to Streptococcus. [Related pubchem assays: 1677 (Project Summary), 1915, 1914, 1902 (Retest at Dose), 1900 (Counter Screen), 1662 (Primary HTS)]", "assay_type": "functional, organism-based"}, "[3]": {"system": "Streptococcus sp. 'group A'", "assay": "Streptococcus pyogenes SK(-)GAS viability under kanamycin – luminescence, BacTiterGlo, confirmation, counter-screen for streptokinase expression inhibitor project, dose response (AID 1900)", "assay_type": "functional, organism-based"}, "Streptococcus [4]": {"system": "Streptococcus", "assay": "GAS UMAA2166 growth inhibition – luminescence, BacTiterGlo, counter-screen for streptokinase expression inhibitor project, dose response (AID 1915);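 further: potency for reduction of bacterial viability or growth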", "assay_type": "functional, organism-based"}, "[5]": {"target": "T2, Short transient receptor potential channel 4 (Mus musculus, UniProt Q9QUQ5)", "T2 sequence (Q9QUQ5 whole entry)": "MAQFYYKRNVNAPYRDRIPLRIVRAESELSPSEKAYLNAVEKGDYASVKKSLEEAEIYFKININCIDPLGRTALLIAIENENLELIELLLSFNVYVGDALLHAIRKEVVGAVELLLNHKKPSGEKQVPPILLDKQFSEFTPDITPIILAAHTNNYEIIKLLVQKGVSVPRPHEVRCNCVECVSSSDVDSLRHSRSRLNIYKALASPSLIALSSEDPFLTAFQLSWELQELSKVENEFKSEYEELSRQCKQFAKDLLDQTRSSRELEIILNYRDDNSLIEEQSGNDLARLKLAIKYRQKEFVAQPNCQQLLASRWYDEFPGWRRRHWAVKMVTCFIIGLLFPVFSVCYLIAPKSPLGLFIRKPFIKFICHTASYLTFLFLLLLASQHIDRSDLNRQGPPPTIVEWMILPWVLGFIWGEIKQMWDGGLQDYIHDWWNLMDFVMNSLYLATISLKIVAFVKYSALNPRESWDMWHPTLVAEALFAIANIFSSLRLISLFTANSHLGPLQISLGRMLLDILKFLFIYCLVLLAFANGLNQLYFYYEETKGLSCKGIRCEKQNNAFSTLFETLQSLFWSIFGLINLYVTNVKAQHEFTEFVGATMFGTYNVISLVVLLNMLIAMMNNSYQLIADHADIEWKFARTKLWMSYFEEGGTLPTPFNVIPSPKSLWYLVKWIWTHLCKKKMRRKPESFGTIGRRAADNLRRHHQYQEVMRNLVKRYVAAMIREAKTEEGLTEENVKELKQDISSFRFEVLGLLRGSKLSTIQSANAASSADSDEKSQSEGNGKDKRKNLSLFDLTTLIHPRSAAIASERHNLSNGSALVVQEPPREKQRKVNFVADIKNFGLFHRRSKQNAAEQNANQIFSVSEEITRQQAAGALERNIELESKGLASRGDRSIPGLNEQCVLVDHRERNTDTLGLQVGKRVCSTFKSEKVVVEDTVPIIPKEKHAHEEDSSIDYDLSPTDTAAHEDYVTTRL", "assay": "block of DAMGO-driven TRPC4 calcium entry – cell-based, HEK293 TRPC4/mu-opioid, Fluo-4 calcium, dose response (AID 434942);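 further: potency of inhibitors blocking the TRPC4 calcium response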", "assay_type": "functional"}, "[6]": {"target": "G-protein coupled receptor 35 (Homo sapiens, UniProt Q9HC97)", "sequence (Q9HC97 whole entry)": "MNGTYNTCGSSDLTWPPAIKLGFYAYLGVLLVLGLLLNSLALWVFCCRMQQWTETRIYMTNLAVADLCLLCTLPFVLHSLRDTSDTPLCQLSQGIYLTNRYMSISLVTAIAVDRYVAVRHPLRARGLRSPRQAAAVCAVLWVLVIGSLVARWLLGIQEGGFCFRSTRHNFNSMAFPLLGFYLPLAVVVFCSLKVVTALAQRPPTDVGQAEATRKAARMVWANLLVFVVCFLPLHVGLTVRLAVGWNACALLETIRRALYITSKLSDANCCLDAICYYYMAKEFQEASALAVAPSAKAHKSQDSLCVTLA", "assay": "inhibition of zaprinast-stimulated GPR35 beta-arrestin translocation – imaging, U2OS, beta-arrestin-GFP, zaprinast agonist, primary screen (AID 2058);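 further: antagonist potency meaning inhibition of agonist-induced arrestin redistribution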", "assay_type": "functional"}, "Protein Rev": {"target": "Protein Rev (Human immunodeficiency virus type 1 group M subtype B (isolate WMJ22)(HIV-1), UniProt P05866)", "assay": "inhibitors of Rev protein–RRE RNA complex – biochemical, protein-RNA interaction, dose response (AID 842)", "design": "species or system Human immunodeficiency virus 1"}, "Insulin-degrading enzyme": {"target": "T3, Insulin-degrading enzyme (Homo sapiens, UniProt P14735)", "T3 sequence (P14735 whole entry)": "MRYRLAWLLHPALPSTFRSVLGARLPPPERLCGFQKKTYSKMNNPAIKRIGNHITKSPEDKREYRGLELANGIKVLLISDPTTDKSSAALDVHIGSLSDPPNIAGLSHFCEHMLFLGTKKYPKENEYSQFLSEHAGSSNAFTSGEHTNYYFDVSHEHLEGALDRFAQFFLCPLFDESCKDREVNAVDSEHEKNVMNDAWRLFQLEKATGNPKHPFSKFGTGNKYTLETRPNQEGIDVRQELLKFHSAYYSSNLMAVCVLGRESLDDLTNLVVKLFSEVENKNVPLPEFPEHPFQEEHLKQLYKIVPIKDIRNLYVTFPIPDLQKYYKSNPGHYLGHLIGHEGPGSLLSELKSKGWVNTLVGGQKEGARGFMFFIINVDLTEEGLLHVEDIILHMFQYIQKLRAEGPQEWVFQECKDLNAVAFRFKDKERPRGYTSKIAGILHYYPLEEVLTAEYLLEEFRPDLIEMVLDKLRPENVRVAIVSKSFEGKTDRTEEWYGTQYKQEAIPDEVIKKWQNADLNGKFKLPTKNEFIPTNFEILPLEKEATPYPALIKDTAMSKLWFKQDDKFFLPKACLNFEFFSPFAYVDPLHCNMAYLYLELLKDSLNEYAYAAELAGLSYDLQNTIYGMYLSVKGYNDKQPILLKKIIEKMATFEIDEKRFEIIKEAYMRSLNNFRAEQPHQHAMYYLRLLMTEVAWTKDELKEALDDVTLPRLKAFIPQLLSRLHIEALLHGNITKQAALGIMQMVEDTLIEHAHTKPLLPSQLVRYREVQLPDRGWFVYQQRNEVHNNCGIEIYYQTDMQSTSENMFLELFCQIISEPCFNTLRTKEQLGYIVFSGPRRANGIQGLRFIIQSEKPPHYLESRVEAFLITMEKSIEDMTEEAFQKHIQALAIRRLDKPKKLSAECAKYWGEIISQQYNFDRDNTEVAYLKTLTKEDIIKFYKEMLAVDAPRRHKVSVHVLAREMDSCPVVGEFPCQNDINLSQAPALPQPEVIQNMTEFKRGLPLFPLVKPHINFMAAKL", "assay": "Dose Response: Fluorescence polarization-based cell-based high throughput dose response assay for inhibitors of insulin-degrading enzyme (IDE). [Related pubchem assays: 434962 (Primary screen (IDE inhibitors in singlicate)), 449730 (Counterscreen (Cytotoxicity in triplicate)), 435028 (Confirmation (IDE inhibitors in triplicate)), 434984 (Summary …", "assay_type": "functional"}, "[7]": {"assay": "Counterscreen for IDE inhibitors: Luminescence-based cell-based high throughput dose response assay to identify compounds that are cytotoxic to HEK cells. [Related pubchem assays: 434962 (Primary screen (IDE inhibitors in singlicate)), 449730 (Counterscreen (Cytotoxicity in triplicate)), 435028 (Confirmation (IDE inhibitors in triplicate)) …", "assay_type": "functional", "details": "HEK293"}, "[8]": {"target": "Voltage-dependent T-type calcium channel subunit alpha-1H (Homo sapiens, UniProt O95180)", "assay_type": "functional"}, "[9]": {"target": "Melanin-concentrating hormone receptor 1 (Homo sapiens, UniProt Q99705)", "assay": "Fluorescence-based counterscreen for antagonists of the G-protein coupled receptor 7 (GPR7): cell-based high throughput dose response assay to identify antagonists of the melanin-concentrating hormone receptor 1 (MCHR1).", "assay_type": "functional"}, "[10]": {"target": "Muscarinic acetylcholine receptor M5 (Homo sapiens, UniProt P08912)", "sequence (P08912 whole entry)": "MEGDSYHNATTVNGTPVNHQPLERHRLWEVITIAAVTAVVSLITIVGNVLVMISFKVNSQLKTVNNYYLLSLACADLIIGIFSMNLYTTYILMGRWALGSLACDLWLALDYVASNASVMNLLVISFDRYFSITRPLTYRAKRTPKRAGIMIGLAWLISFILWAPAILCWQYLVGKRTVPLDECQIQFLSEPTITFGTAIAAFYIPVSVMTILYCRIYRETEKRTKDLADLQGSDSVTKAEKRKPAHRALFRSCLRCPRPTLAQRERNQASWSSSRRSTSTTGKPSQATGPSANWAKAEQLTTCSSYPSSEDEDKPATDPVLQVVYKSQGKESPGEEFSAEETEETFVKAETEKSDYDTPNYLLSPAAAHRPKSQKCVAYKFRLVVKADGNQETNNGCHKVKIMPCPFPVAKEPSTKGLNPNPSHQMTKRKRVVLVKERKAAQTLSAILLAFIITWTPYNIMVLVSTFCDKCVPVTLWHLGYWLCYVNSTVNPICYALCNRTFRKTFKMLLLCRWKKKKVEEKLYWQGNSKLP", "assay": "(§1) Discovery of novel allosteric modulators of the M1 muscarinic receptor: Agonist NMS competition at M5. [Related pubchem assays: 1488 (Discovery of novel allosteric modulators of the M1 muscarinic receptor: Agonist Confirmation Assay), 626 (Discovery of Novel Allosteric Modulators of the M1 Muscarinic Receptor: Agonist Primary Screen)]", "assay_type": "functional"}, "[11]": {"target": "Muscarinic acetylcholine receptor M2 (Homo sapiens, UniProt P08172)", "sequence (P08172 whole entry)": "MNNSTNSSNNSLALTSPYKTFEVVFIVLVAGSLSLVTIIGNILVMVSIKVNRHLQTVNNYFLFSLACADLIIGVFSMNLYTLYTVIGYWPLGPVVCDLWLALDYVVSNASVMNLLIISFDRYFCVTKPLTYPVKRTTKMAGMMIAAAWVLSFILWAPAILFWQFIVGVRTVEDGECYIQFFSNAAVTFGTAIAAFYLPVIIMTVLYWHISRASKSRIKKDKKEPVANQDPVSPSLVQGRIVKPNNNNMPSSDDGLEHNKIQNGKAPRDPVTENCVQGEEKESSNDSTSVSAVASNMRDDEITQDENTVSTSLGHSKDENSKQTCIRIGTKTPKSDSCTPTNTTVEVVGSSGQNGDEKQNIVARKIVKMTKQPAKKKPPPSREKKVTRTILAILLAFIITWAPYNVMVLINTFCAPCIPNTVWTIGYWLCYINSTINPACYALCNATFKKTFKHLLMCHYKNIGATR", "assay": "Discovery of novel allosteric modulators of the M1 muscarinic receptor: Agonist NMS competition at M2. [Related pubchem assays: 626 (Discovery of Novel Allosteric Modulators of the M1 Muscarinic Receptor: Agonist Primary Screen), 1488 (Discovery of novel allosteric modulators of the M1 muscarinic receptor: Agonist Confirmation Assay)]", "assay_type": "functional"}, "[12]": {"target": "Muscarinic acetylcholine receptor M3 (Homo sapiens, UniProt P20309)", "sequence (P20309 whole entry)": "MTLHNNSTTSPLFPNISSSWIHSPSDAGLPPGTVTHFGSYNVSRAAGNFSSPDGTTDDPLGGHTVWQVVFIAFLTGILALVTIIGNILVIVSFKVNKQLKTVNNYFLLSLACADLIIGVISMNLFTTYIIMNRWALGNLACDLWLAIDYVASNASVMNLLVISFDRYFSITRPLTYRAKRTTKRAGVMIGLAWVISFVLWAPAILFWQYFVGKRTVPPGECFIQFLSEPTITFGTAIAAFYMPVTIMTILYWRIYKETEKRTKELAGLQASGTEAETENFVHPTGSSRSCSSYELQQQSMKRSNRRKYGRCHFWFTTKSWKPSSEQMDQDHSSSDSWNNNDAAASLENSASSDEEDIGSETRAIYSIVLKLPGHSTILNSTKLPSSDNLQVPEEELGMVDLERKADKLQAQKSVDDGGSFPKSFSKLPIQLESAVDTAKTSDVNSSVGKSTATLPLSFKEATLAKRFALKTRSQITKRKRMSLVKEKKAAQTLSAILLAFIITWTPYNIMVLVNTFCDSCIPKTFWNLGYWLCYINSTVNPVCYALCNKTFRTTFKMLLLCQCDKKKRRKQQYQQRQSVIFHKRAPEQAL", "assay": "as §1, with “M3.” for “M5.”", "assay_type": "functional"}, "[13]": {"target": "Muscarinic acetylcholine receptor M1 (Rattus norvegicus, UniProt P08482)", "sequence (P08482 whole entry)": "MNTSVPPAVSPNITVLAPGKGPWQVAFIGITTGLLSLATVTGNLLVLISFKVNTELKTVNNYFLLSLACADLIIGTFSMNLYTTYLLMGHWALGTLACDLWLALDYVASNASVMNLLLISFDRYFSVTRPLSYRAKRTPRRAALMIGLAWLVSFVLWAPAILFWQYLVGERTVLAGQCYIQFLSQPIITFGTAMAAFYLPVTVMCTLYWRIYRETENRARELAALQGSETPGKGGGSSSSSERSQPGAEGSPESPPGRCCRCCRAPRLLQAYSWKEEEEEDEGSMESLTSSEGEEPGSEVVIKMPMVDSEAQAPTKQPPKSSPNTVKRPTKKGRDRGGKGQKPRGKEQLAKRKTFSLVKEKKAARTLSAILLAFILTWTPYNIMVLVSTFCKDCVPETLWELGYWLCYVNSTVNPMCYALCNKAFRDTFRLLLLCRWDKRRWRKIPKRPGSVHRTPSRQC", "assay": "Discovery of novel allosteric modulators of the M1 muscarinic receptor: Agonist NMS binding at M1. [Related pubchem assays: 626 ]"}, "[14]": {"target": "Muscarinic acetylcholine receptor M4 (Rattus norvegicus, UniProt P08485)", "sequence (P08485 whole entry)": "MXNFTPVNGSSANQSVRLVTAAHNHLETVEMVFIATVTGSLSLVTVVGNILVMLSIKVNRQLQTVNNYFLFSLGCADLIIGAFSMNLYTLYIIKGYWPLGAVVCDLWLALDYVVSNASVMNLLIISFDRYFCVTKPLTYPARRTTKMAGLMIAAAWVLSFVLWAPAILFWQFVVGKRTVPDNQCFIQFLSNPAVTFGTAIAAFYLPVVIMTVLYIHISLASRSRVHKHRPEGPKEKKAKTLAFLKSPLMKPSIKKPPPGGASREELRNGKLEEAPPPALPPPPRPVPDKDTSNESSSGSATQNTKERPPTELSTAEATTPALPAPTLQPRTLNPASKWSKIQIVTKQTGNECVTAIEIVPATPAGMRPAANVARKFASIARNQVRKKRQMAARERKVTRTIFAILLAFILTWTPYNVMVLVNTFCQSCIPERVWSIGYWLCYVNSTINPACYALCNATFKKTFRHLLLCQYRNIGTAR", "assay": "Discovery of novel allosteric modulators of the M1 muscarinic receptor: Agonist NMS competition at M4. [Related pubchem assays: 626, 1488, 1741 ]", "assay_type": "functional"}, "[15]": {"assay": "mRNA 3' processing disruption, beta-gal signal increase – luminescence, S. cerevisiae SKY197-pL101, dose response (AID 2525)", "assay_type": "functional, cell-based"}, "[16]": {"target": "Glyceraldehyde-3-phosphate dehydrogenase (Homo sapiens, UniProt P04406)"}, "[17]": {"target": "Heat shock cognate 71 kDa protein (Homo sapiens, UniProt P11142)", "sequence (P11142 whole entry)": "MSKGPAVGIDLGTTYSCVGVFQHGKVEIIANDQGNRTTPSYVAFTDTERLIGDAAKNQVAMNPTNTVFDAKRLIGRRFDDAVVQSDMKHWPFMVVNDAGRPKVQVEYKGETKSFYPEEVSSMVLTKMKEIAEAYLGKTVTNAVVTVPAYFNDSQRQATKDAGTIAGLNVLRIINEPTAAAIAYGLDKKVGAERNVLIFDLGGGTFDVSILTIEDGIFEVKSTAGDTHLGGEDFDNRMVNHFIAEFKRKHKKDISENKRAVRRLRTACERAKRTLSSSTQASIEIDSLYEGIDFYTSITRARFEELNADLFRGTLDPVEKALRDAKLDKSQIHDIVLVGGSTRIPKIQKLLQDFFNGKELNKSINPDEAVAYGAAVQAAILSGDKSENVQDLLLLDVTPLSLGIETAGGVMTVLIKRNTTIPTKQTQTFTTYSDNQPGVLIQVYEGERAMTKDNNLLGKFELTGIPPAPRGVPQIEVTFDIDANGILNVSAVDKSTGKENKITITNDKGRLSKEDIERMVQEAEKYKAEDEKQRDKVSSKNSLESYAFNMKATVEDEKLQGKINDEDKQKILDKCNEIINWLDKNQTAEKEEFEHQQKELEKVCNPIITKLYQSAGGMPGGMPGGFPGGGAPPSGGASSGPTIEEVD", "assay": "In Vitro Hsc70 Dose Response Fluorescence Polarization Assay. [Related pubchem assays: 1072 ]"}}, "note": "Activity calls are given as the source filed them."}
{"smiles": "O=C(NCc1cccnc1)NC1(C(F)(F)F)Oc2ccc(Cl)cc2O1", "note": "(configuration not stated)", "values": [{"measurement": "IC50", "setting": "Procathepsin L", "value": "> 59.6 µM (not active)"}, {"measurement": "IC50", "setting": "[1]", "value": "8.54 µM (active)"}, {"measurement": "IC50", "setting": "Aspartyl aminopeptidase", "value": "1.58 µM (active)"}]}
{"smiles": "COCc1cc(Sc2c(Cl)cccc2Cl)nc(-c2ccccc2)n1", "values": [{"measurement": "EC50", "setting": "Streptokinase A", "value": "9.31 µM (active)"}, {"measurement": "EC50", "setting": "Streptococcus [2]", "value": "> 500 µM (not active)"}, {"measurement": "EC50", "setting": "[3]", "value": "8.22 µM (active)"}, {"measurement": "EC50", "setting": "Streptococcus [4]", "value": "> 150 µM (not active)"}]}
{"smiles": "COc1ccc2nc(C)cc(NCc3ccc(F)cc3)c2c1", "values": [{"measurement": "EC50", "setting": "[5]", "value": "5.96 µM (active)"}, {"measurement": "IC50", "setting": "[6]", "value": "2.6 µM (active)"}]}
{"smiles": "CC1=NOC(=O)/C1=C/c1ccc(N(C)C)cc1", "values": [{"measurement": "IC50", "setting": "Protein Rev", "value": "2.86 µM (active)"}]}
{"smiles": "Cn1c2ccccc2c2cc(/C=C(\\NC(=O)c3ccccc3)C(=O)NCC(=O)O)ccc21", "values": [{"measurement": "IC50", "setting": "Insulin-degrading enzyme", "value": "42.5 µM (not active)"}, {"measurement": "IC50", "setting": "[7]", "value": "> 55.7 µM (not active)"}]}
{"smiles": "C=CCOc1c(Br)cc(CNc2nccs2)cc1OC", "values": [{"measurement": "EC50", "setting": "[8]", "value": "6.12 µM (active)"}]}
{"smiles": "Cc1ccccc1CN1C[C@@H]2C[C@@H](c3c[nH]nc3-c3ccc(F)cc3)N3CCC[C@@]23C1=O", "values": [{"measurement": "IC50", "setting": "[9]", "value": "25.4 µM (not active)"}]}
{"smiles": "CCOC(=O)N1CCC(NCCNC(=O)c2ccccc2)CC1", "values": [{"measurement": "EC50", "setting": "[10]", "value": "64.6 µM (inconclusive)"}, {"measurement": "EC50", "setting": "[11]", "value": "28 µM (inconclusive)"}, {"measurement": "EC50", "setting": "[12]", "value": "12.4 µM (inconclusive)"}, {"measurement": "EC50", "setting": "[13]", "value": "36.5 µM (inconclusive)"}, {"measurement": "EC50", "setting": "[14]", "value": "21.4 µM (inconclusive)"}]}
{"smiles": "O=C(O)CN1C(=O)/C(=C\\c2ccc(N3CCCCC3)o2)SC1=S", "values": [{"measurement": "EC50", "setting": "[15]", "value": "12.4 µM (active)"}]}
{"smiles": "Nc1ncnc2c1ncn2[C@@H]1O[C@H](COP(=O)(O)OP(=O)(O)O)[C@@H](O)[C@H]1O", "note": "[ADENOSINE DIPHOSPHATE]", "values": [{"measurement": "IC50", "setting": "[16]", "value": "> 5 µM (inconclusive)"}, {"measurement": "IC50", "setting": "[17]", "value": "280 nM (active)"}]}
